For six compounds, GI50 and TGI results are on record in PubChem BioAssay (NCI).

What all share (experiment): NCI tumour cell line growth inhibition, 48 h
The test system of assay [1] is NCI-H522 lung.
Assay [2] relates to 786-0 renal.
In assay [3] the test system is SK-MEL-2 melanoma.
In assay [4] the test system is SK-MEL-5 melanoma.
Assay [5] has as its system DU-145 prostate.
Assay [6] has as its system MDA-MB-231 breast.
Assay [7] deals with OVCAR-8 ovarian.
Assay [8] concerns ACHN renal.
Assay [9] concerns MALME-3M melanoma.
In assay [10] the test system is U251 CNS.

Molecules are shown by their SMILES. Where “and” joins values, the source holds several entries; their conditions need not be identical. Equal values may be shown once.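 1) Cells in 96-well plates. 2) Compound, 48 h, 5 concentrations. 3) Linear interpolation between surrounding doses. 4) Unreached endpoint = highest concentration. The concentration for 50% growth inhibition is given as GI50. TGI is the concentration that stops growth completely.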

Regarding `N#C/C=C(\c1ccc([N+](=O)[O-])cc1)n1nnc2cc(Cl)c(Cl)cc21`, the GI50 was 1.72 µM in assay [1]; 2.09 µM in [2]; 2.56 µM in assay [3]; 1.83 µM in assay [4]; 1.65 µM in assay [5]; 2.34 µM in assay [6]. Also, the GI50 is 3.02 µM in assay [7], 1.63 µM in [8], 1.7 µM in assay [9] and 1.71 µM in assay [10]. Also, the TGI in assay [1] was determined as 3.57 µM; in [2], 3.58 µM; in assay [3] it was 6.42 µM; in assay [4], 3.6 µM; in [5], 3.3 µM; in [6], 8.66 µM. The TGI in assay [7] came out at 12 µM; in assay [8], 3.16 µM; in assay [9] it was 4.18 µM; in assay [10], 3.37 µM.

Take `O=C(c1ccc(F)c(F)c1Nc1ccc(I)cc1F)N1CC(O)([C@@H]2CCCCN2)C1`: the GI50 was 4.16 µM and 3.22 µM in assay [1]; 5.74 µM and 3.82 µM in assay [2]; < 0.013 µM and 0.0327 µM in [3]; 3.32 µM and 3.18 µM in assay [5]; < 0.0254 µM and 0.0955 µM in [6]; 10.5 µM and > 10 µM in assay [7]. Also, the GI50 in assay [8] is 0.463 µM and 0.637 µM; in [9] it was < 0.01 µM and 0.00181 µM; in assay [10] it was 0.492 µM and 0.958 µM. The TGI in assay [1] is 21.6 µM and > 10 µM; in [2], 20.6 µM and > 10 µM; in assay [3], below 0.0268 µM; in [4], 8.56 µM and > 10 µM; in [5] it was 19.9 µM and > 10 µM; in assay [6], 4.18 µM and > 9.06 µM. For the same compound, the TGI in assay [7] was 24.5 µM and > 10 µM; in [8] it was 15.1 µM and > 10 µM; in assay [9], 0.0133 µM; in assay [10], 17.9 µM and > 10 µM.

As for `N=c1ccn2c(n1)OC1C(O)C(CO)OC12` (centres undefined), the GI50 in [1] was above 100 µM; in assay [2] it was 0.652 µM; in assay [3], above 100 µM; in [4] it was 10.4 µM; in assay [5] it was 2.53 µM and 0.886 µM; in assay [6], above 100 µM. For the same compound, the GI50 in assay [7] is 0.481 µM; in [8] it was 0.237 µM; in assay [9], 4.22 µM; in [10], 2.11 µM. Further, the TGI in assay [1], in [2], in assay [3], in [4], in assay [5] and in assay [6] was above 1000 µM in each case. Also, the TGI is above 1000 µM in [7]; 14 µM and 3.49 µM in assay [8]; 78.5 µM and > 100 µM in [9]; above 1000 µM in assay [10].

For the compound `C=CC(=O)N1CCC(C2CCNc3c(C(N)=O)c(-c4ccc(Oc5ccccc5)cc4)nn32)CC1` (centres undefined), the GI50 in assay [1] was 4.93 µM; in assay [2], 12.2 µM; in assay [3] it was 20.3 µM; in assay [4], 10.6 µM; in [5], 11.6 µM; in assay [6] it was 19.2 µM. The GI50 was 16.9 µM in assay [7], 2.32 µM in assay [8], 14 µM in assay [9] and 19.7 µM in assay [10]. Further, the TGI in assay [1] is 22.7 µM; in assay [2], above 100 µM; in [3], 40.4 µM; in [4] it was 22.9 µM; in [5], above 100 µM; in assay [6], 92.5 µM. Besides, the TGI in [7] is 59.2 µM; in assay [8] it was 23.6 µM; in assay [9] it was 34.6 µM; in [10], 96.3 µM.

As for `CCN(CC)CCOc1ccc(/C=C2\CC3C4CC=C5C[C@@H](O)CC[C@]5(C)C4CC[C@]3(C)C2=O)cc1OC` (some centres undefined), the GI50 in [1] was 3.57 µM; in assay [2] it was 1.92 µM; in [3] it was 7.27 µM; in assay [4] it was 6.58 µM; in [5], 9.51 µM; in assay [6], 2.31 µM. Further, the GI50 in assay [7] is 1.92 µM; in assay [8] it was 1.77 µM; in [9], 2.01 µM; in assay [10] it was 2.41 µM. In addition, the TGI in [1] turned out to be 14 µM; in [2], 3.66 µM; in assay [3] it was 78.3 µM; in assay [4] it was 22.6 µM; in assay [5] it was 21.4 µM; in [6] it was 7.38 µM. Further, the TGI turned out to be 3.74 µM in assay [7], 3.32 µM in assay [8], 12.3 µM in assay [9] and 6.37 µM in assay [10].

As for `COc1c(OC)c(OC)c(C(=O)/C=C/c2ccccc2)c(OC)c1OC`, the TGI in [1] stood at 14.7 µM; in [2], 21.6 µM; in assay [3] it was 45 µM; in assay [4], 26.3 µM; in [5], 12 µM; in assay [6], 35.6 µM. For the same compound, the TGI in [7] was 34 µM; in assay [8], 28.9 µM; in [9], 30.1 µM; in assay [10], 20.5 µM.
